Data reported in US4162253A, “Acaricidal agents” (Pfizer Inc., priority 1975, dated 1979).

Tested on: Adult Boophilus microplus
Assay: Topical application test on fully engorged adult Boophilus microplus ticks; overall reduction in anticipated reproduction (eggs laid and hatching)
Format: in vivo
Conditions: Rhipicephalus microplus, read-out: In Vitro Activity (topical application) vs. Adult Boophilus microplus % Effect; for inhibition at 1 µg/tick: 1 μg/tick; for inhibition at 2 µg/tick: 2 μg/tick; for inhibition at 4 µg/tick: 4 μg/tick; for inhibition at 8 µg/tick: 8 μg/tick; for inhibition at 10 µg/tick: 10 μg/tick; for inhibition at 0.5 µg/tick: 0.5 μg/tick
Protocol: In one test, five freshly collected, fully engorged Boophilus microplus adult ticks are used for each acaricidal compound. Using a micro-pipette, 10 micro-liters of a solution containing 10 micro-grams of the acaricidal compound in ethanol or acetone, is applied to the dorsal surface of each of the ticks. The treated ticks are placed in weighted 1"×2" glass vials, weighted and stored at 26° C. and 80% relative humidity in plastic boxes for two weeks. The ticks are then removed from the vials and the vials weighted to give the weight of eggs laid by the ticks. Any reduction in the egg laying of the treated ticks is caculated as a percentage of the eggs laid by untreated control ticks.
The eggs are returned to the incubator for a further 3 weeks after which time the percentage of eggs hatching is estimated.
The percentage effect is calculated as the overall reduction in the anticipated reproduction of the ticks using the weight of eggs laid and the percentage of eggs hatching.
The test may be repeated using smaller amounts of the acaricidal compound for sufficiently active compounds.
The activity of many of the compounds of the Examples detailed hereinafter against the tick Boophilus microplus has been determined.

SMILES: CCCCCCCCCCCCCCCCC[N+]1=C2SC=C(C)N2CCCC1 [Example 30]
- inhibition at 1 µg/tick: 13%
- inhibition at 2 µg/tick: 47%
- inhibition at 4 µg/tick: 56%
- inhibition at 8 µg/tick: 95%
- inhibition at 10 µg/tick: 100%

SMILES: CCCCCCCCCCCCCCCCCC[N+]1=C2SC=C(C)N2CCC1 [Example 8]
- inhibition at 10 µg/tick: 26%

SMILES: CCCCCCCCCCCCCCCC[N+]1=C2SC=C(C)N2CCC1 [Example 19]
- inhibition at 2 µg/tick: 0%
- inhibition at 4 µg/tick: 9%
- inhibition at 8 µg/tick: 28%
- inhibition at 10 µg/tick: 49%

SMILES: CCCCCCCCCCCCCCCCC[N+]1=C2SC(C)=C(c3ccccc3)N2CC1 [Example 44]
- inhibition at 0.5 µg/tick: 0%
- inhibition at 1 µg/tick: 63%
- inhibition at 2 µg/tick: 89%
- inhibition at 4 µg/tick: 93%
- inhibition at 8 µg/tick: 100%
- inhibition at 10 µg/tick: 100%

SMILES: CCCCCCCCCCCCCC[N+]1=C2SC(C)=C(CC)N2CCC1 [Example 4]
- inhibition at 2 µg/tick: 12%
- inhibition at 4 µg/tick: 75%
- inhibition at 8 µg/tick: 100%
- inhibition at 10 µg/tick: 83%

SMILES: CCCCCCCCCCCCCCCC[N+]1=C2SC=CN2CCCC1 [Example 36]
- inhibition at 10 µg/tick: 26%

SMILES: CCCCCCCCCCCCCCCCCC[N+]1=C2SC=C(c3ccccc3)N2CCC1 [Example 14]
- inhibition at 10 µg/tick: 47%

SMILES: CCCCCCCCCCCCCCC[N+]1=C2SC=C(c3ccccc3)N2CCC1 [Example 2]
- inhibition at 1 µg/tick: 16%
- inhibition at 2 µg/tick: 67%
- inhibition at 4 µg/tick: 77%
- inhibition at 8 µg/tick: 100%
- inhibition at 10 µg/tick: 100%

SMILES: CCCCCCCCCCCC[N+]1=C2SC=C(c3ccccc3)N2CCCC1 [Example 37]
- inhibition at 10 µg/tick: 87%

SMILES: CCCCCCCCCCCCCCCCCC[N+]1=C2SC=C(c3ccccc3)N2CCCC1 [Example 22]
- inhibition at 10 µg/tick: 57%

SMILES: CCCCCCCCCCCCCCCC[N+]1=C2SC=C(c3ccc(F)cc3)N2CCCC1 [Example 41]
- inhibition at 0.5 µg/tick: 5%
- inhibition at 1 µg/tick: 18%
- inhibition at 2 µg/tick: 18%
- inhibition at 4 µg/tick: 16%
- inhibition at 8 µg/tick: 43%
- inhibition at 10 µg/tick: 92%

SMILES: CCCCCCCCCCCCCCCCCC[N+]1=C2SC(C)=C(c3ccccc3)N2CC1 [Example 45]
- inhibition at 10 µg/tick: 88%

SMILES: CCCCCCCCCCCCCC[N+]1=C2SC=C(C)N2CCC1 [Example 5]
- inhibition at 1 µg/tick: 0%
- inhibition at 2 µg/tick: 4%
- inhibition at 4 µg/tick: 32%
- inhibition at 8 µg/tick: 63%
- inhibition at 10 µg/tick: 65%

SMILES: CCCCCCCCCCCCCCC[N+]1=C2SC(C)=C(c3ccccc3)N2CCC1 [Example 11]
- inhibition at 0.5 µg/tick: 30%
- inhibition at 1 µg/tick: 36%
- inhibition at 2 µg/tick: 73%
- inhibition at 4 µg/tick: 100%
- inhibition at 8 µg/tick: 100%
- inhibition at 10 µg/tick: 100%

SMILES: CCCCCCCCCCCCCCCC[N+]1=C2SC3=C(CCCC3)N2CCCC1 [Example 35, 9-hexadecyl-2,3-tetramethylene-5,6,7,8-tetrahydrothiazolo[3,2-a][1,3] diazepinium bromide]
- inhibition at 0.5 µg/tick: 0%
- inhibition at 1 µg/tick: 8%
- inhibition at 2 µg/tick: 13%
- inhibition at 4 µg/tick: 70%
- inhibition at 8 µg/tick: 100%
- inhibition at 10 µg/tick: 100%

SMILES: CCCCCCCCCCCCCCCCC[N+]1=C2SC=C(C)N2CCC1 [Example 9]
- inhibition at 10 µg/tick: 42%

SMILES: CCCCCCCCCCCCCCCCC[N+]1=C2SC=C(c3ccccc3)N2CCC1 [Example 6]
- inhibition at 1 µg/tick: 7%
- inhibition at 2 µg/tick: 43%
- inhibition at 4 µg/tick: 79%
- inhibition at 8 µg/tick: 98%
- inhibition at 10 µg/tick: 100%

SMILES: CCCCCCCCCCCCCCC[N+]1=C2SC=C(c3ccccc3)N2CCCC1 [Example 26, 9-Pentadecyl-3-phenyl-5,6,7,8-tetrahydrothiazolo[3,2-a][1,3]diazepinium bromide]
- inhibition at 0.5 µg/tick: 14%
- inhibition at 1 µg/tick: 12%
- inhibition at 2 µg/tick: 43%
- inhibition at 4 µg/tick: 61%
- inhibition at 8 µg/tick: 92%
- inhibition at 10 µg/tick: 99%

SMILES: CCCCCCCCCCCCCCCC[N+]1=C2SC=C(c3ccccc3)N2CCC1 [Example 3]
- inhibition at 0.5 µg/tick: 2%
- inhibition at 1 µg/tick: 13%
- inhibition at 2 µg/tick: 26%
- inhibition at 4 µg/tick: 90%
- inhibition at 8 µg/tick: 97%
- inhibition at 10 µg/tick: 100%

SMILES: CCCCCCCCCCCCCCC[N+]1=C2SC=C(C)N2CCCC1 [Example 24]
- inhibition at 0.5 µg/tick: 13%
- inhibition at 1 µg/tick: 48%
- inhibition at 2 µg/tick: 70%
- inhibition at 4 µg/tick: 97%
- inhibition at 8 µg/tick: 100%
- inhibition at 10 µg/tick: 100%

SMILES: CCCCCCCCCC[N+]1=C2SC(C)=C(c3ccccc3)N2CC1 [Example 46]
- inhibition at 10 µg/tick: 95%

SMILES: CCCCCCCCCCCCCCCCCC[N+]1=C2SC=C(C)N2CCCC1 [Example 25]
- inhibition at 1 µg/tick: 20%
- inhibition at 2 µg/tick: 40%
- inhibition at 4 µg/tick: 82%
- inhibition at 8 µg/tick: 78%
- inhibition at 10 µg/tick: 98%

SMILES: CCCCCCCCCCCCCCCCCC[N+]1=C2SC(C)=C(c3ccccc3)N2CCC1 [Example 12]
- inhibition at 0.5 µg/tick: 16%
- inhibition at 1 µg/tick: 19%
- inhibition at 2 µg/tick: 22%
- inhibition at 4 µg/tick: 38%
- inhibition at 8 µg/tick: 87%
- inhibition at 10 µg/tick: 100%

SMILES: CCCCCCCCCCCCCC[N+]1=C2SC(C)=C(c3ccccc3)N2CCC1 [Example 13]
- inhibition at 0.5 µg/tick: 0%
- inhibition at 1 µg/tick: 6%
- inhibition at 2 µg/tick: 21%
- inhibition at 4 µg/tick: 99.4%
- inhibition at 8 µg/tick: 99.9%
- inhibition at 10 µg/tick: 100%

SMILES: CCCCCCCCCCCCCCCC[N+]1=C2SC(c3ccccc3)=CN2CCCC1 [Example 34]
- inhibition at 10 µg/tick: 32%

SMILES: CCCCCCCCCCCC[N+]1=C2SC=C(C)N2CCCC1 [Example 38]
- inhibition at 10 µg/tick: 30%

SMILES: CCCCCCCCCCCCCCCC[N+]1=C2SC(C)=C(c3ccccc3)N2CC1 [Example 42, 7-cetyl-2-methyl-3-phenyl--5,6-dihydro-imidazo[2,1-b]thiazolium bromide]
- inhibition at 0.5 µg/tick: 6%
- inhibition at 1 µg/tick: 52%
- inhibition at 2 µg/tick: 50%
- inhibition at 4 µg/tick: 90%
- inhibition at 8 µg/tick: 100%
- inhibition at 10 µg/tick: 100%

SMILES: CCCCCCCCCCCCC[N+]1=C2SC=C(C)N2CCCC1 [Example 27]
- inhibition at 0.5 µg/tick: 40%
- inhibition at 1 µg/tick: 38%
- inhibition at 2 µg/tick: 55%
- inhibition at 4 µg/tick: 63%
- inhibition at 8 µg/tick: 75%
- inhibition at 10 µg/tick: 86%

SMILES: CCCCCCCCCCCCCCCC[N+]1=C2SC(C)=C(c3ccccc3)N2CCC1 [Example 7, 8-cetyl, 2-methyl-3-phenyl-6,7-dihydro[5H]thiazolo[3,2-a]pyrimidinium bromide]
- inhibition at 0.5 µg/tick: 31%
- inhibition at 1 µg/tick: 54%
- inhibition at 2 µg/tick: 92%
- inhibition at 4 µg/tick: 99%
- inhibition at 8 µg/tick: 100%
- inhibition at 10 µg/tick: 100%

SMILES: CCCCCCCCCCCCCCC[N+]1=C2SC=C(C)N2CCC1 [Example 10]
- inhibition at 10 µg/tick: 72%

SMILES: CCCCCCCCCCCCCC[N+]1=C2SC=C(c3ccccc3)N2CCCC1 [Example 29]
- inhibition at 1 µg/tick: 19%
- inhibition at 2 µg/tick: 11%
- inhibition at 4 µg/tick: 55%
- inhibition at 8 µg/tick: 100%
- inhibition at 10 µg/tick: 100%

SMILES: CCCCCCCCCCCCCCCC[N+]1=C2SC(c3ccccc3)=CN2CCC1 [Example 16]
- inhibition at 10 µg/tick: 33%

SMILES: CCCCCCCCCCCCCCCCC[N+]1=C2SC(C)=C(c3ccccc3)N2CCC1 [Example 15]
- inhibition at 0.5 µg/tick: 11%
- inhibition at 1 µg/tick: 9%
- inhibition at 2 µg/tick: 29%
- inhibition at 4 µg/tick: 99.9%
- inhibition at 8 µg/tick: 100%
- inhibition at 10 µg/tick: 100%

SMILES: CCCCCCCCCCCCCCCC[N+]1=C2SC(C)=C(CC)N2CCC1 [Example 1, 8-cetyl-3-ethyl-2-methyl-6,7-dihydro[5H]thiazolo[3,2-a]pyrimidinium bromide]
- inhibition at 0.5 µg/tick: 24%
- inhibition at 1 µg/tick: 59%
- inhibition at 2 µg/tick: 99%
- inhibition at 4 µg/tick: 100%
- inhibition at 8 µg/tick: 100%
- inhibition at 10 µg/tick: 100%

SMILES: CCCCCCCCCCCCCC[N+]1=C2SC=C(C)N2CCCC1 [Example 28]
- inhibition at 1 µg/tick: 13%
- inhibition at 2 µg/tick: 52%
- inhibition at 4 µg/tick: 74%
- inhibition at 8 µg/tick: 83%
- inhibition at 10 µg/tick: 100%

SMILES: CCCCCCCCCCCCCCC[N+]1=C2SC(C)=C(c3ccccc3)N2CC1 [Example 43]
- inhibition at 0.5 µg/tick: 4%
- inhibition at 1 µg/tick: 23%
- inhibition at 2 µg/tick: 72%
- inhibition at 4 µg/tick: 96%
- inhibition at 8 µg/tick: 100%
- inhibition at 10 µg/tick: 100%

SMILES: CCCCCCCCCCCCCCCCC[N+]1=C2SC=C(c3ccccc3)N2CCCC1 [Example 32]
- inhibition at 0.5 µg/tick: 0%
- inhibition at 1 µg/tick: 12%
- inhibition at 2 µg/tick: 66%
- inhibition at 4 µg/tick: 94%
- inhibition at 8 µg/tick: 95%
- inhibition at 10 µg/tick: 100%

SMILES: CCCCCCCCCCCCCCCC[N+]1=C2SC(C)=C(c3ccccc3)N2CCCC1 [Example 23, 9-hexadecyl-2-methyl-3-phenyl-5,6,7,8-tetrahydro-thiazolo[3,2-a][1,3]diazepinium bromide]
- inhibition at 0.5 µg/tick: 6%
- inhibition at 1 µg/tick: 60%
- inhibition at 2 µg/tick: 98%
- inhibition at 4 µg/tick: 100%
- inhibition at 8 µg/tick: 100%
- inhibition at 10 µg/tick: 100%
